This note sets out measurements from patent US4492694A, “Indolylglycyl cephalosporin derivatives” (Eli Lilly and Company, priority 1983, dated 1985).

The subject of one data set is Klebsiella. Nature of the data set: Agar dilution MIC. The class given is cell-based.
A further data set relates to Staph. aureus. The data set can be described thus: Agar dilution MIC. The class given is cell-based. The note with it: Staphylococcus aureus.
The subject of the next data set is Salmonella. Nature of the data set: Agar dilution MIC. The format is cell-based. The source says:
(§1) A typical and preferred compound provided by this invention is 7-(3-indolylglycylamido)-3-methyl-3-cephem-4-carboxylic acid, the compound illustrated in Example 2. The antibacterial activity of this compound and others of the invention has been determined in standard in vitro agar dilution assays against a variety of gram positive and gram negative microorganisms. The following Table presents typical minimum inhibitory concentrations (MIC's) in μg/ml for several compounds of the invention when evaluated against the indicated microorganisms. MIC's for several known compounds are also presented for comparison.
Background: In agar dilution the substance is mixed into plates at graded concentrations.

In the next data set the test system is Enterobacter. Nature of the data set: Agar dilution MIC. The class given is cell-based. The settings on record: for MIC: Enterobacter.
The nature of data set [1]: Pharmacokinetics, plasma concentration after intravenous dose. The class given is in vivo. The note with it: rat, rats, 20 mg/kg. The protocol: (§2) For example, when 7-(3-indolylglycylamido)-3-methyl-3-cephem-4-carboxylic acid was administered to rats at an intravenous dose of 20 mg/kg, the plasma concentration after one hour was 15.0 μg/ml, and after four hours, 6.0 μg/ml. About 60% of the above compound was recovered in the urine of rats following a 20 mg/kg subcutaneous dose. Less than 5% was recovered from the bile.

A further data set concerns E. coli. Nature of the data set: Agar dilution MIC. The class given is cell-based. The note with it: Escherichia coli.
The test system of another data set is Strep PN. The data set can be described thus: Agar dilution MIC. The class given is cell-based. The note with it: strain PARK.
The next data set concerns Staph. epi. Nature of the data set: Agar dilution MIC. The note with it: for Agar Dilution MIC: strain EPI2. The class given is cell-based.
Excerpt: as §1

The next data set concerns Strep. A. The data set can be described thus: Agar dilution MIC. The format is cell-based. The settings on record: strain C203.
The next data set concerns Strep. D. Nature of the data set: Agar dilution MIC. The format is cell-based. The note with it: read-out: Agar Dilution MIC.
The nature of data set [2]: Recovery in urine and bile after subcutaneous dose. The format is in vivo. The note with it: rat, sc, rats, 20 mg/kg. Here is the method: as §2
For another data set, the system named is Shig. sonn. The data set can be described thus: Agar dilution MIC. The format is cell-based. The note with it: strain N9.
Where [3] appears, read: strain X1.1, read-out: Agar Dilution MIC.
Where [4] appears, read: read-out: Agar Dilution MIC, strain X514.
Setting [5] is: strain 1335, read-out: Agar Dilution MIC.
[6] abbreviates: strain X68, read-out: Agar Dilution MIC.
The mark [7] stands for this setting: strain V41, read-out: Agar Dilution MIC.
The mark [8] stands for this setting: strain X26, read-out: Agar Dilution MIC.
[9] abbreviates: read-out: Agar Dilution MIC, strain S13E.
Where [10] appears, read: strain X400, read-out: Agar Dilution MIC.
Where [11] appears, read: strain EPI1, read-out: Agar Dilution MIC.

Molecules are shown by their SMILES. Values after ≈ are worked out from the molar mass of the structure shown. Counter-ions that a name gives are not always drawn. Like-named read-outs stand apart in the source and are kept apart here. Where only a bound is given, the exact number is not on record here.

The MIC is the least concentration at which growth counts as inhibited. Regarding `CC1=C(C(=O)O)N2C(=O)[C@@H](NC(=O)[C@H](N)c3ccccc3)[C@H]2SC1` [Cephalexin, reference compound], the MIC in the data set with Klebsiella (read-out: Agar Dilution MIC) is 2 µg/mL (≈ 5.76 µM); with Staph. aureus (setting [3]) it was 2 µg/mL (≈ 5.76 µM); with Salmonella (setting [4]) it was 0.6 µg/mL (≈ 1.73 µM); in the data set on Salmonella (setting [5]) it was 0.25 µg/mL (≈ 0.72 µM); in the data set with Enterobacter (read-out: Agar Dilution MIC, strain C32), 0.125 µg/mL (≈ 0.36 µM); in the data set with Enterobacter (read-out: Agar Dilution MIC, strain EB17), 0.06 µg/mL (≈ 0.173 µM). In addition, the minimal inhibitory concentration (MIC) with Enterobacter (setting [6]) was determined as 0.03 µg/mL (≈ 0.0864 µM).
As to `CC1(C)S[C@@H]2[C@H](NC(=O)[C@H](N)c3ccccc3)C(=O)N2[C@H]1C(=O)O` [Ampicillin, reference compound], the MIC in the data set with Staph. aureus (read-out: Agar Dilution MIC) turned out to be 0.125 µg/mL (≈ 0.358 µM); with Staph. aureus (setting [7]) it was 8 µg/mL (≈ 22.9 µM); in the data set on Salmonella (setting [4]), 1 µg/mL (≈ 2.86 µM); in the data set with Salmonella (setting [5]), 4 µg/mL (≈ 11.4 µM); in the data set with Enterobacter (setting [6]), 8 µg/mL (≈ 22.9 µM).
In the case of `CC1=C(C(=O)O)N2C(=O)[C@@H](NC(=O)[C@H](N)c3c[nH]c4ccccc34)C2SC1` (stereo partly drawn) [Ex. 2, D-7-(3-Indolylglycylamido)-3-methyl-3-cephem-4-carboxylic acid trifluoroacetate], the MIC in the data set with Klebsiella (setting [8]) was found to be 16 µg/mL; with Staph. aureus (setting [9]), 32 µg/mL; with Staph. aureus (setting [3]), 4 µg/mL; in the data set with Staph. aureus (setting [10]) it was 64 µg/mL; in the data set with Staph. aureus (setting [7]), 8 µg/mL; with E. coli (strain EC14) it was 32 µg/mL. Also, the MIC in the data set with E. coli (strain N10) was 32 µg/mL; with E. coli (strain TEM) it was 16 µg/mL; in the data set on Strep PN, 0.5 µg/mL; in the data set with Staph. epi (setting [11]), 16 µg/mL; in the data set with Salmonella (setting [4]) it was 32 µg/mL; in the data set on Salmonella (setting [5]), 128 µg/mL. In addition, the MIC with Enterobacter (read-out: Agar Dilution MIC, strain X68) was 32 µg/mL; in the data set with Enterobacter (strain C32, read-out: Agar Dilution MIC) it was over 128 µg/mL; against Strep. A, 0.25 µg/mL; in the data set on Strep. D, 32 µg/mL; in the data set on Strep. D (strain 9960), 16 µg/mL. Moreover, the concentration at 4 h in data set [1] (four hours) amounted to 6000 ng/mL. The concentration at 1 h in data set [1] (one hour) worked out at 15000 ng/mL. The “Agar Dilution MIC” value is 16 µg/mL in the data set on Staph. epi and over 128 µg/mL with Enterobacter (strain EB17). Moreover, the dose excreted in data set [2] (bile, read-out: recovered from the bile) is under 5%; in [2] (urine, read-out: recovered in the urine), about 60%.
For the compound `COC1=C(C(=O)O)N2C(=O)[C@@H](NC(=O)[C@H](N)c3c[nH]c4ccccc34)C2SC1` (stereo partly drawn) [Ex. 4, D-7-(3-Indolylglycylamido)-3-methoxy-3-cephem-4-carboxylic acid], the MIC in the data set with Klebsiella (setting [8]) worked out at 16 µg/mL (≈ 39.8 µM); with Klebsiella (setting [6]), 16 µg/mL (≈ 39.8 µM); in the data set on Staph. aureus (read-out: Agar Dilution MIC), 32 µg/mL (≈ 79.5 µM); in the data set on Staph. aureus (setting [9]) it was 8 µg/mL (≈ 19.9 µM); in the data set on Staph. aureus (setting [3]) it was 4 µg/mL (≈ 9.94 µM); with Staph. aureus (setting [10]), 64 µg/mL (≈ 159 µM). The MIC is 32 µg/mL (≈ 79.5 µM) against Shig. sonn.; 8 µg/mL (≈ 19.9 µM) in the data set with E. coli (strain EC14); 16 µg/mL (≈ 39.8 µM) with E. coli (strain N10); 32 µg/mL (≈ 79.5 µM) in the data set on E. coli (strain TEM); 0.5 µg/mL (≈ 1.24 µM) in the data set on Strep PN; 16 µg/mL (≈ 39.8 µM) in the data set with Staph. epi (setting [11]). Moreover, the MIC in the data set on Salmonella (setting [4]) is 16 µg/mL (≈ 39.8 µM); in the data set with Salmonella (setting [5]), 32 µg/mL (≈ 79.5 µM); in the data set on Enterobacter (setting [6]), over 128 µg/mL; in the data set on Strep. A, 0.25 µg/mL (≈ 0.621 µM); in the data set with Strep. D (strain 9960), 16 µg/mL (≈ 39.8 µM); in the data set on Strep. D (strain X66), 64 µg/mL (≈ 159 µM). Moreover, the “Agar Dilution MIC” value in the data set on Staph. epi was 16 µg/mL; in the data set with Enterobacter (strain C32) it was over 128 µg/mL; in the data set with Enterobacter (strain EB17) it was over 128 µg/mL.
`N[C@@H](C(=O)N[C@@H]1C(=O)N2C(C(=O)O)=C(Cl)CSC12)c1c[nH]c2ccccc12` (stereo partly drawn) [Ex. 3, D-7-(3-indolylglycylamido)-3-chloro-3-cephem-4-carboxylic acid trifluoroacetate]: the minimum inhibitory concentration (MIC) stood at 4 µg/mL in the data set on Klebsiella (setting [8]); 16 µg/mL in the data set on Klebsiella (setting [6]); 32 µg/mL with Staph. aureus (read-out: Agar Dilution MIC); 8 µg/mL in the data set with Staph. aureus (setting [9]); 4 µg/mL in the data set on Staph. aureus (setting [3]); 64 µg/mL in the data set with Staph. aureus (setting [10]). Moreover, the MIC amounted to 8 µg/mL with E. coli (strain EC14); 16 µg/mL in the data set with E. coli (strain N10); 16 µg/mL with E. coli (strain TEM); 0.25 µg/mL against Strep PN; 32 µg/mL in the data set with Staph. epi (read-out: Agar Dilution MIC, strain EPI2); 16 µg/mL in the data set on Staph. epi (setting [11]). Also, the MIC in the data set with Salmonella (setting [4]) was 16 µg/mL; with Salmonella (setting [5]), 16 µg/mL; in the data set on Enterobacter (setting [6]) it was over 128 µg/mL; in the data set with Strep. A it was 0.5 µg/mL; with Strep. D (strain 9960) it was 16 µg/mL; in the data set with Strep. D (strain X66), 16 µg/mL. Besides, the “Agar Dilution MIC” value with Enterobacter (strain C32) and with Enterobacter (strain EB17) was over 128 µg/mL each time.
